Format in all cases: in vivo, Nicotiana tabacum (Xanthi nc)
Assay [1] has as its system PR-1a protein. Briefly: Induction and quantification of PR-1a protein after leaf infiltration of tobacco. The note with it: for PR-1a induction, result in words: leaf infiltration; for PR-1a protein following treatment, 96 h / PR-1a protein following treatment, 192 h: compared to 1 mM SA at 96 h. The protocol: (§1) Tobacco (Nicotiana tabacum) plants (Xanthi nc) were grown in Promix PGX at 25 C and a 16/8 h photoperiod. Plants were fed a 1 g/L concentration of 20-20-20 (N-P-K fertilizer) twice a week. The Xanthi-nc variety carries the N-gene for resistance to TMV.
For evaluating pathogenesis-related protein induction, test compounds were dissolved in ethanol and dispersed in water (0.1% v/v ethanol). The most recently fully-expanded leaf on each plant was selected for infiltration. Infiltration was accomplished using a 5 mL disposable syringe (without needle). The solution was forced through the stomates of the abaxial surface of the leaf. Treatment solution was infiltrated into the leaf until the leaf was saturated.
All harvests were performed 96 hours after infiltration unless indicated. Briefly, treated leaves were de-veined, the remaining tissue was cut into 1 cm×1 cm pieces and vacuum-infiltrated with ice-cold extraction buffer. […] The extracellular fluid containing the acidic PR-1a protein was collected by centrifugation at 1000 g for 10 minutes at 4° C. After collection, samples were stored at −80° C. Protein concentrations of extracellular fluids were determined by Bradford dye reagent (BioRad, Richmond, Calif.) used BSA as a standard. Eight to ten μg of each protein sample were analyzed by electrophoresis on 14% Native Polyacrylamide gels (14% pre-cast Tris-Glycine gels; Invitrogen, Carlsbad, Calif.). Gels were stained with colloidal blue staining reagent (Invitrogen), and PR-1a protein was quantitated using a Model GS-710 densitometer (BioRad).

Assay [2] has as its system tobacco mosaic virus (TMV). Briefly: Resistance measurement: TMV lesion diameter after spray application. The note with it: for Percent decrease in TMV-lesion diameter: percent reduction in the diameter of TMV lesions. The protocol: as §1
(§2) Test compounds were dissolved in ETOH and dispersed in water (0.1% v/v ethanol). Spray solutions were amended with 0.25% crop oil concentrate (v/v). Plants were sprayed to drip, and moved to a glasshouse.
After spraying, one leaf per plant was inoculated with 1.0 ug TMV (U1; vulgare strain) at the times indicated. Six days post-inoculation, leaves were removed and the diameters of 20 necrotic lesions were measured per leaf. The mean lesion diameters from at least four plants per treatment were measured. Lesion diameter measures were subjected to two way analysis of variance (ANOVA) and Duncan's multiple range procedure at p=0.05.

Assay [3] concerns PR-1a protein. Description: Induction of PR-1a protein in Xanthi-nc tobacco after spray application. The note with it: which equals 1. The protocol:
Tobacco (Nicotiana tabacum) plants (Xanthi nc) were grown in Promix PGX at 25 C and a 16/8 h photoperiod. Plants were fed a 1 g/L concentration of 20-20-20 (N-P-K fertilizer) twice a week. The Xanthi-nc variety carries the N-gene for resistance to TMV. Plants were treated with chemicals and/or virus at 5-6 weeks after sowing, when they had 5-7 fully-expanded leaves.
Proteins were harvested by the method of Yalpani et al. (1991; Plant Cell. 3:809-818). All harvests were performed 96 hours after infiltration unless indicated. Briefly, treated leaves were de-veined, the remaining tissue was cut into 1 cm×1 cm pieces and vacuum-infiltrated with ice-cold extraction buffer. Leaf tissue was blotted to remove excess buffer, and placed in a spin column assembly (Yalpani et al., 1991). The extracellular fluid containing the acidic PR-1a protein was collected by centrifugation at 1000 g for 10 minutes at 4° C. After collection, samples were stored at −80° C. Protein concentrations of extracellular fluids were determined by Bradford dye reagent (BioRad, Richmond, Calif.) used BSA as a standard. Eight to ten μg of each protein sample were analyzed by electrophoresis on 14% Native Polyacrylamide gels (14% pre-cast Tris-Glycine gels; Invitrogen, Carlsbad, Calif.). Gels were stained with colloidal blue staining reagent (Invitrogen), and PR-1a protein was quantitated using a Model GS-710 densitometer (BioRad).
as §2

Where [4] appears, read: 1 mM spray 48 h before TMV inoculation.
Setting [5] is: 1 mM spray 96 h before TMV inoculation.

Turning to `O=C(O)c1ccccc1F` [2-Fluorobenzoic acid], in the assay on PR-1a protein [1], the “PR-1a induction, result in words” value was “significantly reduced activity”.

Consider `O=C(O)c1c(O)c(Cl)cc(Cl)c1Cl` [3,5,6-Trichlorosalicylic acid], for which, in assay [2], the “Percent decrease in TMV-lesion diameter” value is 45.1%. Same read-out and setting: as for `O=C(O)c1c(O)c(Cl)cc(Cl)c1O` [3,5-Dichloro-6-hydroxysalicylic acid], the figure is 48.3%. For the compound `O=C(O)c1cc(Cl)cc(Cl)c1O` [3,5-Dichlorosalicylic acid, reference compound], in the assay with PR-1a protein [1] (1 mM, which equals 1), the “PR-1a protein following treatment, 96 h” value amounted to 1.83 and the “PR-1a protein following treatment, 192 h” value amounted to 4.66. Further, the “PR-1a induction, result in words” value in the assay with PR-1a protein [1] is “showed the greatest induction of PR-1a”. The “Percent decrease in TMV-lesion diameter” value in assay [2] came out at 36.6%. Consider `O=C(O)c1cc(F)cc(F)c1O` [3,5-Difluorosalicylic acid], for which, in the assay on PR-1a protein [1] (1 mM, which equals 1), the “PR-1a protein following treatment, 96 h” value came to 3.64 and the “PR-1a protein following treatment, 192 h” value is 3.21. For the same compound, the “PR-1a induction, result in words” value with PR-1a protein [1] was “more induction at 96 hours than the corresponding chlorinated salicylates”. This compound also registered a Lesion diameter in assay [2] (setting [4]) of 2.04 AB mm. For the same compound, in assay [2] (setting [5]), the Lesion diameter is recorded as 1.85 A mm. The “Percent decrease in TMV-lesion diameter” value in assay [2] came out at 55.0%. Further, in assay [2] (spray application), the “Reduction of TMV-lesion size / resistance to TMV, result in words” value was “statistically equal to that induced by 5 mM Salicylic acid”. Turning to `O=C(O)c1cc([N+](=O)[O-])cc([N+](=O)[O-])c1O` [3,5-Dinitrosalicylic acid], the “Mean PR Induction (relative induction of PR-1a protein)” value in the assay on PR-1a protein [1] (1 mM, 96 h post infiltration, compared to 1 mM SA, which equals 1) is listed as 0. The “PR-1a induction, result in words” value with PR-1a protein [1] is “completely deactivated”. As to `O=C(O)c1cc(F)cc(Cl)c1O` [3-Chloro-5-fluorosalicylic acid], the “Percent decrease in TMV-lesion diameter” value in assay [2] is recorded as 34%. Take `O=C(O)c1cccc(Cl)c1O` [3-Chlorosalicylic acid]: in assay [2], the “Percent decrease in TMV-lesion diameter” value was 55.1%.

`O=C(O)c1cc(Cl)cc(F)c1O` [3-Fluoro-5-chlorosalicylic acid]: the “Percent decrease in TMV-lesion diameter” value in assay [2] worked out at 47.4%. For the compound `O=C(O)c1cccc(F)c1O` [3-Fluorosalicylic acid], the “Percent decrease in TMV-lesion diameter” value in assay [2] is listed as 34.4%.

On to `O=C(O)c1ncccc1O` [3-Hydroxypicolinic acid], for which the “PR-1a induction, result in words” value in the assay with PR-1a protein [1] is “induced PR-1a accumulation more than equimolar SA”. For the compound `COc1cccc(C(=O)O)c1O` [3-Methoxysalicylic acid], the “Percent decrease in TMV-lesion diameter” value in assay [2] is 8.9%. In the case of `O=C(O)c1cccc([N+](=O)[O-])c1O` [3-Nitrosalicylic acid], the “PR-1a induction, result in words” value with PR-1a protein [1] was “decreased activity”.

As to `Nc1ccc(C(=O)O)c(O)c1` [4-Aminosalicylic acid], in assay [2], the “Percent decrease in TMV-lesion diameter” value is recorded as 22.9%. Turning to `O=C(O)c1ccc(Cl)cc1O` [4-Chlorosalicylic acid, reference compound], the “Percent decrease in TMV-lesion diameter” value in assay [2] stood at 30.2%. On the same count and under the same terms, to `O=C(O)c1ccc(F)cc1O` [4-Fluorosalicylic acid] belongs 36.2%.

For `COc1ccc(C(=O)O)c(O)c1` [4-Methoxysalicylic acid], in assay [2], the “Percent decrease in TMV-lesion diameter” value is 17.6%. For the compound `O=C(O)c1cc(Cl)ccc1O` [5-Chlorosalicylic acid, reference compound], in the assay on PR-1a protein [1] (1 mM, which equals 1), the “PR-1a protein following treatment, 96 h” value was determined as 1.02 and the “PR-1a protein following treatment, 192 h” value is listed as 1.75. Moreover, the “Percent decrease in TMV-lesion diameter” value in assay [2] came out at 38.7%. On to `O=C(O)c1cc(F)ccc1O` [5-Fluorosalicylic acid], for which, in the assay on PR-1a protein [1] (1 mM, which equals 1), the “PR-1a protein following treatment, 96 h” value was 1.30 and the “PR-1a protein following treatment, 192 h” value is given as 1.74. For the same compound, in the assay on PR-1a protein [1], the “PR-1a induction, result in words” value was “more induction at 96 hours than the corresponding chlorinated salicylates”. The “Percent decrease in TMV-lesion diameter” value in assay [2] was 38.0%. As to `COc1ccc(O)c(C(=O)O)c1` [5-Methoxysalicylic acid], the “Percent decrease in TMV-lesion diameter” value in assay [2] stood at 9.7%.

For `O=C(O)c1cc([N+](=O)[O-])ccc1O` [5-Nitrosalicylic acid], in the assay with PR-1a protein [1], the “PR-1a induction, result in words” value was “decreased activity”. On to `O=C(O)c1c(O)cccc1F` [6-Fluorosalicylic acid], for which, in assay [2], the “Percent decrease in TMV-lesion diameter” value came to 24.3%. For the compound `COc1cccc(O)c1C(=O)O` [6-Methoxysalicylic acid], the “Percent decrease in TMV-lesion diameter” value in assay [2] is recorded as 13.3%. Consider `O=C(O)c1ccccc1` [Benzoic acid], for which the “PR-1a induction, result in words” value in the assay on PR-1a protein [1] is “unable to induce PR-1a accumulation”. For `CCOC(=O)C(C)OC(=O)c1cc(Oc2ccc(C(F)(F)F)cc2Cl)ccc1[N+](=O)[O-]` (centres unmarked) [Lactofen, 1-(carboxyethoxy) ethyl 5-[2-chloro-4-(tri-fluoromethyl)phenoxy]-2-nitrobenzoate], the “PR-1a (relative induction)” value was determined as 0.44 in the assay on PR-1a protein [3] (290 ppm Lactofen, harvested 96 hours after spray application, compared to 1 mM SA) and 2.00 with PR-1a protein [3] (1450 ppm Lactofen, harvested 96 hours after spray application, compared to 1 mM SA). Consider `O=C([O-])c1ccccc1O.[Na+]` [NaSA, sodium salicylate], for which the “PR-1a (relative induction)” value with PR-1a protein [3] (1600 ppm NaSA, harvested 96 hours after spray application, compared to 1 mM SA) was found to be 1.00; in the assay with PR-1a protein [3] (8000 ppm NaSA, harvested 96 hours after spray application, compared to 1 mM SA), 4.56; in the assay with PR-1a protein [3] (NaSA 1600 mg/l, 48 hours after application, compared to infiltration with 1 mM SA at 96 h), 0.34; with PR-1a protein [3] (NaSA 1600 mg/l, 96 hours after application, compared to infiltration with 1 mM SA at 96 h) it was 1.02. Besides, the “Lesion diameter” value was found to be 1.17 B mm in assay [2] (NaSA 1600 mg/l, 48 hours after application) and 1.75 AB mm in assay [2] (NaSA 1600 mg/l, 96 hours after application). As to `O=C(O)c1ccccc1O` [Salicylic acid, reference compound], in the assay on PR-1a protein [1] (1 mM, which equals 1), the “PR-1a protein following treatment, 96 h” value is 1.00. For the same compound, in the assay on PR-1a protein [1] (1 mM, which equals 1), the “PR-1a protein following treatment, 192 h” value is listed as 1.46. Besides, the Lesion diameter in assay [2] (setting [4]) stood at 2.20 BC mm; in assay [2] (setting [5]) it was 2.52 B mm; in assay [2] (5 mM spray 48 h before TMV inoculation), 1.88 A mm; in assay [2] (5 mM spray 96 h before TMV inoculation) it was 1.68 A mm. Turning to `O=C(O)c1ccccc1S` [Thiosalicylic acid], the “PR-1a induction, result in words” value in the assay with PR-1a protein [1] is “significantly reduced activity”.

Regarding “Salicylic acid/Sodiumsalicylate [reference compound]”, the “Mean PR Protein Induction” value with PR-1a protein [1] (1 mM, 96 h post infiltration, compared to 1 mM SA, which equals 1 (Table 5)) was 1.0. In addition, the “Percent decrease in TMV-lesion diameter” value in assay [2] was found to be 30.1%.

(Values after patent US20050050587A1, “Inducers of plant disease resistance” (priority 2003, published 2005).)
